# According to US20240293322A1, “SUSTAINED RELEASE FORMULATIONS COMPRISING A SELECTIVE ANDROGEN RECEPTOR MODULATOR” (University of Iowa Research Foundation, priority 2021, published 2024):
# “Also recorded” adds a separate entry of the source.
# How the values were obtained:
# [1] = system: acidic saline muscle pain model; assay: Acidic saline muscle pain (fibromyalgia) model, muscle withdrawal threshold (MWT); type: in vivo, C57BL/6J mice
# Protocol: A SARM was tested its ability to alleviate pain using a model of fibromyalgia (Sluka et al., 2001). The model is induced by repeated injections of acidic saline into the gastrocnemius muscle, 5 days apart. After the second injection animals develop widespread pain behavior, termed hyperalgesia, that resolves in 4 weeks. Pain-behaviors are tested by using a device to apply deep pressure to the gastrocnemius muscle; withdrawal from this pressure is considered a pain-response.
# Pain was induced using the model after which daily administration of SARMs or a vehicle was performed for 4 weeks. Withdrawal thresholds of the muscle were tested before and after induction of the model, and weekly after administration of the SARM. A decrease in withdrawal threshold is interpreted as increased pain sensitivity or hyperalgesia. […] Daily administration is clinically cumbersome and results in lower adherence to the treatment and so a long acting SARM containing microparticle formulation was developed to treat pain, e.g., chronic pain.
# (§1) A decrease in MWT was interpreted as muscle hyperalgesia.
# The SARM, (s)-3-(4-cyanophenoxy)-n-(4-cyano-3-(trifluoromethyl)phenyl)-2-hydroxy-2-methylpropanamide (Achemblock, San Francisco, CA, USA), was used in the following experiments. To test for the analgesic effects of SARM the acidic saline muscle pain model was induced and the presence of hyperalgesia 24 hours after model induction was confirmed. Animals then received daily subcutaneous injections of either SARM or vehicle for the next 4 weeks. For SARM administration, the drug was dissolved in dimethyl sulfoxide (DMSO; Fisher Scientific, Waltham, MA, USA) at a concentration of 50 mg/ml and then diluted in polyethylene glycol 300 (PEG300; Med Lab Supply, Pompano Beach, FL, USA) until a final solution of 10 mg/ml in 80:20 PEG300:DMSO was achieved. Animals were anesthetized with 2-4% isoflurane and SARM (25 mg/kg) or vehicle were delivered subcutaneously. This dose was chosen based on prior literature which found greatest effect at this dose (Gao et al., 2004). […]
# [2] = system: acidic saline muscle pain model; assay: Acidic saline muscle pain model, paw allodynia by von Frey monofilament; type: in vivo, C57BL/6J mice; settings: daily SARM 25 mg/kg s.c. for 4 weeks vs vehicle; ipsilateral and contralateral paw
# Excerpt: as §1
# C57BL/6J mice = assay: Rewarding behavior, condition place preference testing; type: in vivo; settings: SARM 25 mg/kg s.c. daily for 5 days
# Excerpt: To test if SARM produced rewarding behavior condition place preference testing was employed using a 9-day testing paradigm. The boxes used for testing were 27.5″ by 8.25″ divided into two 10.75″ by 8.25″ pairing chambers and a 4.75″ by 8.25″ middle chamber. The pairing chambers had different colored walls (solid black vs black and white stripe) and floor textures (smooth vs ridged). The middle chamber had solid black walls with smooth floors and was illuminated. Acclimation and baseline testing occurred over the first 3 days. Animals were placed in boxes with access to all 3 chambers for 15 minutes. On the third day, time spent in each box was recorded. Drug pairing then occurred for 5 days on days 4 through 8. Each day, animals were injected subcutaneously with SARM vehicle (80:20; PEG300:DMSO) and placed in a pairing chamber for 60 minutes. Animals were then returned to their home cages. Four hours later animals were subcutaneously injected with SARM (25 mg/kg) and were confined to the opposite pairing chamber for 60 minutes. Chamber pairings were counterbalanced amongst animals. Following pairing, on day 9, animals were placed in boxes with access to all 3 chambers for 15 minutes with time spent in each box recorded. In order to determine if rewarding behavior was present, the amount of time spent in SARM paired chambers was compared between baseline and post drug pairing.
structure (smiles),measurement,setting,value
"C[C@](O)(COc1ccc(C#N)cc1)C(=O)Nc1ccc(C#N)c(C(F)(F)F)c1 [SARM, (s)-3-(4-cyanophenoxy)-n-(4-cyano-3-(trifluoromethyl)phenyl)-2-hydroxy-2-methylpropanamide]",effect on hyperalgesia in male versus female mice,[1]; Example 1,worked equally in male and female mice
same,"withdrawal thresholds of the gastrocnemius muscle (pain thresholds, muscle hyperalgesia)","[1]; Example 1: daily administration of free SARM for 4 weeks vs vehicle, left and right muscle",higher pain thresholds than those receiving vehicle treatment; also recorded: reversed muscle hyperalgesia
same,muscle hyperalgesia measured via muscle withdrawal threshold (MWT),"[1]; daily SARM 25 mg/kg s.c. for 4 weeks vs vehicle, ipsilateral and contralateral limb",alleviated decreased MWT bilaterally in both sexes; also recorded: significant reversal in muscle hyperalgesia; also recorded: reversed muscle hyperalgesia
same,paw allodynia / paw hypersensitivity (von Frey number of responses),[2],no effect on paw allodynia; also recorded: unable to alleviate paw hypersensitivity
same,preference for SARM paired chamber (reward like behavior),C57BL/6J mice; baseline vs post drug pairing,did not show an increased preference for the SARM paired chamber; also recorded: no preference for the SARM paired chamber
same,"time spent in SARM paired chamber, post drug pairing","C57BL/6J mice; baseline 380.3±51.0 sec, mean±SEM",385.7 ± 37.1 s
